Laboratory results published in ChEMBL document CHEMBL1201862, “PubChem BioAssay data set” (2004).
Calls of active or inactive are those of the source.

What was measured:
Cytochrome P450 3A4 = Cytochrome P450 3A4 (Homo sapiens, UniProt P08684);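 also: CYP3A4 tested as one member of a cytochrome P450 panel screen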
Streptococcus = experiment: GAS UMAA2166 growth inhibition – luminescence, BacTiterGlo, counter-screen for streptokinase expression inhibitor project, dose response (AID 1915); type: functional, organism-based;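 also: potency for reduction of bacterial viability or growth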
Protein skinhead-1 = target: T1, Protein skinhead-1 (Caenorhabditis elegans, UniProt P34707); type: functional
T1 sequence (P34707 whole entry): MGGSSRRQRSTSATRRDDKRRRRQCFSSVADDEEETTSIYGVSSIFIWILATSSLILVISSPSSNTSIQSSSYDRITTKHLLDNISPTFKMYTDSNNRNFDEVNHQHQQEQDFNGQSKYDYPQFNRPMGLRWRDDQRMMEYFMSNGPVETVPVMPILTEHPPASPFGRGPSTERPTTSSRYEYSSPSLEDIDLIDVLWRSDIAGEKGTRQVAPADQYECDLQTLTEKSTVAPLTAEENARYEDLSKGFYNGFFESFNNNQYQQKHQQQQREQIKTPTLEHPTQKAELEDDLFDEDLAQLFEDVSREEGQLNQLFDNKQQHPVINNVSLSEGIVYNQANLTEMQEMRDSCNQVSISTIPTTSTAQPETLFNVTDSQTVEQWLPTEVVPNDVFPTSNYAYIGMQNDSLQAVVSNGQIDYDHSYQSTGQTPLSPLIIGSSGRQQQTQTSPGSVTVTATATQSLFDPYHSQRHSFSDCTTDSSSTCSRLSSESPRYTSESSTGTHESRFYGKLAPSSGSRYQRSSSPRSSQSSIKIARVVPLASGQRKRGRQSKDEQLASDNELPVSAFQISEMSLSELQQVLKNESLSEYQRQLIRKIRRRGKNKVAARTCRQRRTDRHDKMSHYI

Cytochrome P450 2C9 = Cytochrome P450 2C9 (Homo sapiens, UniProt P11712)
Sequence of Cytochrome P450 2C9 (P11712 whole entry): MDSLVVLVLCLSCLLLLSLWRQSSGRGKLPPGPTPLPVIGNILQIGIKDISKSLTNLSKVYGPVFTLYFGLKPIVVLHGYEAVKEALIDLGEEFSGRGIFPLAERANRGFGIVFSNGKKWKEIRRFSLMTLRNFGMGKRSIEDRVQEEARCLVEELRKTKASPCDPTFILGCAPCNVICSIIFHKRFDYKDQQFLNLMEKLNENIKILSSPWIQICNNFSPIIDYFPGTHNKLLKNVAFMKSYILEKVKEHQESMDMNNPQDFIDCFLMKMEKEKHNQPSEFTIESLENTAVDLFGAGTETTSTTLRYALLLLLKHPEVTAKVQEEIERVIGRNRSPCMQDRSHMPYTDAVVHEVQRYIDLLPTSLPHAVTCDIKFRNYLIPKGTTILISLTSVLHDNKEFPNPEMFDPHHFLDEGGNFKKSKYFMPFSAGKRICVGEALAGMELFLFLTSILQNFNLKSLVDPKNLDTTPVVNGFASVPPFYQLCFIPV

Streptokinase A = target: T2, Streptokinase A (Streptococcus pyogenes serotype M1, UniProt P10520); experiment: viability-normalized secreted streptokinase activity reduction – plasminogen activation absorbance, OD405, dose response (AID 1914); type: functional, Streptococcus pyogenes M1 GAS;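 also: secreted streptokinase activity via plasminogen activation per viability signal from cell pellet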
T2 sequence (P10520 whole entry): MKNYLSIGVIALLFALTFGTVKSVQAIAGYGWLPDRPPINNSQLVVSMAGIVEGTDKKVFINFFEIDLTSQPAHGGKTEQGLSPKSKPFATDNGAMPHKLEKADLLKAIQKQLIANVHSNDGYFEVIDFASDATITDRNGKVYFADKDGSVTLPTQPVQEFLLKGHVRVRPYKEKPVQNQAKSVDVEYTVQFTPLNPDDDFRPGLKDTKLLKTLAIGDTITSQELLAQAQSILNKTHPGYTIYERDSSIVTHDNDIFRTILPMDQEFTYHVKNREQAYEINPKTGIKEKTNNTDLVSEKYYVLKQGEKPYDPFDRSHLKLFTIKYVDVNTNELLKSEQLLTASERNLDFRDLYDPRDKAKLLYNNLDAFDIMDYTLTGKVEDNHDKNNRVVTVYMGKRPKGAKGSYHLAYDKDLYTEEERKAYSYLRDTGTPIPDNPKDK

[1] = viability of HCT116 lacking mutant beta-catenin – cell-based, human colon tumor, dose response (AID 1045); type: functional;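 also: HCT116 colon tumor cells with beta catenin knocked out; cells exposed to compound for 60 hours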
[2] = reduction of Shn3 3'UTR-driven luciferase in osteoblasts – cell-based, Clone20 osteoblasts, firefly luciferase, cherry-picked, dose response (AID 624132); type: functional;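 also: firefly luciferase luminescence from reporter carrying the Shn3 3'UTR in osteoblasts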
[3] = viability of PTEN-deleted HCT116 cells – cell-based, HCT116 PTEN knockout, dose response (AID 1047); type: functional;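 also: HCT116 colon tumor cells with PTEN knocked out; cells exposed to compound for 60 hours before readout; potency for loss of cell viability measured by luminescence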
[4] = non-specific 3'UTR reporter inhibition in Clone20-Shn3RL – cell-based, Renilla luciferase, cherry-picked, counter-screen for Shn3 inhibitor project, dose response (AID 624133); type: functional
[5] = loss of viability in HepG2 cells – cell-based, CellTiter-Glo, cherry-picked, cytotoxicity control for Shn3 inhibitor project, dose response (AID 624134); type: functional
[6] = NIH3T3 cell viability loss – ATP luminescence, mouse fibroblasts, counter-screen, dose response (AID 2010); type: functional, cell-based;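 also: cells exposed to compound for about 90 hours before reading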
[7] = Trypanosoma cruzi growth suppression in host cells – NIH3T3 host cells, beta-gal luminescence, confirmation (AID 2044); type: functional, cell-based;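 also: intracellular parasites grown in NIH/3T3 mouse fibroblasts as host cells; luminescent beta-galactosidase reporter signal from transgenic T. cruzi replicating inside host cells; inhibitors lower the luminescence signal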
[8] = Luminescence Cell-Based Dose Response HTS to Identify Inhibitors of 5'UTR Stem-Loop Driven Prion Protein mRNA Translation in H4 Neuroglioblastoma Cells. [Related pubchem assays: 1827 (Project Summary), 1813 (Primary HTS)]; type: functional
[9] = luciferase reporter signal suppression in cells – H4 neuroglioma cells, luminescence, dose response (AID 1990); type: functional, cell-based
[10] = alpha-synuclein stem-loop luciferase translation blockers – H4 neuroglioma cells, luminescence, confirmation (AID 1988); type: functional, cell-based
[11] = blockade of melanocortin 4 receptor signaling – cell-based, plate reader, cherry pick, counter-screen for LGR2 antagonist project, dose response (AID 743444); type: functional;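 also: transfected HEK 293 cells stimulated with alpha-MSH peptide; potency of inhibitors of the alpha-MSH evoked signal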
[12] = blockers of bursicon-stimulated LGR2 cAMP reporter – cell-based, HEK293, CRE-luciferase reporter, cherry pick, set 2, dose response (AID 743343); type: functional;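 also: transfected cells were stimulated with diluted bursicon conditioned medium after compound addition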
[13] = fluconazole-exposed Candida albicans growth modulators – fluorescence, retest, confirmation (AID 2467); type: functional, cell-based
[14] = NIH-3T3 fibroblast cytotoxicity, dose response, cytotoxicity control, cell-based, fluorescence, Alamar Blue, secondary assay (AID 2327); type: functional;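 also: NIH-3T3 mouse fibroblasts cultured with fluconazole at 8 µg/mL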

Sequence of Cytochrome P450 3A4 (P08684 whole entry): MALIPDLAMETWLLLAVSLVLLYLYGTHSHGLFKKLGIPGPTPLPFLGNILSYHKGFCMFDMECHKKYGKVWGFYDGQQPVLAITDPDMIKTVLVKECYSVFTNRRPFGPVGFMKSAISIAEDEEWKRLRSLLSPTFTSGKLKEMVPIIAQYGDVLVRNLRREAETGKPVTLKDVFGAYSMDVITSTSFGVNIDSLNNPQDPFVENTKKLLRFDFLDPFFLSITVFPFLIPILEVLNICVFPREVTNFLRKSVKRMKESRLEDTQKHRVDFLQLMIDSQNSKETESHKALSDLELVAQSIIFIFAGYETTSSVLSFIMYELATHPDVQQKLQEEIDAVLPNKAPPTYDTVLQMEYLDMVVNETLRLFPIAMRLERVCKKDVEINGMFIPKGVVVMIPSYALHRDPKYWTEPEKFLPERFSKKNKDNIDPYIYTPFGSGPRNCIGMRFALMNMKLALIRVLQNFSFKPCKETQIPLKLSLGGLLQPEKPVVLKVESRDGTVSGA

Question: Which AC50 (Cytochrome P450 3A4) does the source give for `CCc1sc(N(C(=O)Cc2ccccc2)c2cccc(F)c2)nc1-c1ccc(C)cc1` here?
Answer: 17.8 µM (inconclusive)

Question: What about the EC50 (Streptococcus) of the same molecule?
Answer: > 150 µM (not active)

Question: And the IC50 (Protein skinhead-1)?
Answer: > 100 µM (inactive)

Question: What about the AC50 (Cytochrome P450 2C9) of the same molecule?
Answer: 6.31 µM (inconclusive)

Question: What about the EC50 (Streptokinase A) of the same molecule?
Answer: 32.6 µM (active)

Question: With `COc1ccccc1/C=C1\CCCC2=C1Nc1nnnn1C2c1ccccc1OC` (centres undefined) as the molecule, how does the EC50 [1] read?
Answer: 6.96 µM (active)

Question: What about the AC50 [2] of the same molecule?
Answer: 36 µM (active)

Question: What about the EC50 [3] of the same molecule?
Answer: 8.85 µM (active)

Question: Which AC50 [4] does the source give for `O=C(/C=C/c1ccc(OCc2ccccc2)c(OCc2ccccc2)c1)c1cccnc1` here?
Answer: 19.3 µM (active)

Question: What about the EC50 [1] of the same molecule?
Answer: 6.92 µM (active)

Question: What about the AC50 [2] of the same molecule?
Answer: 5.19 µM (active)

Question: What about the EC50 [3] of the same molecule?
Answer: 8.72 µM (active)

Question: And the AC50 [5]?
Answer: 40.5 µM (active)

Question: For `C(=C1/CCCC2=C1Nc1ncnn1C2c1ccccc1)/c1ccccc1` (centres undefined), which EC50 [6] is on record?
Answer: 6.87 µM (active)

Question: What about the EC50 [1] of the same molecule?
Answer: 2.58 µM (active)

Question: What about the EC50 [7] of the same molecule?
Answer: 3.45 µM (active)

Question: What about the AC50 (Cytochrome P450 2C9) of the same molecule?
Answer: 7.94 µM (inconclusive)

Question: What about the EC50 [3] of the same molecule?
Answer: 3.45 µM (active)

Question: With `CCOC(=O)Cc1csc(N/C=C2/C(=O)N(c3ccc(C)c(C)c3)C(=O)c3ccccc32)n1` as the molecule, how does the EC50 [8] read?
Answer: 10.1 µM (active)

Question: What about the EC50 [9] of the same molecule?
Answer: > 120 µM (not active)

Question: And the EC50 [1]?
Answer: 10 µM (active)

Question: What about the EC50 [3] of the same molecule?
Answer: 15.1 µM (active)

Question: What about the EC50 [10] of the same molecule?
Answer: > 120 µM (not active)

Question: With `Cc1ccccc1Nc1nnc(SCC(=O)NC(=O)Nc2ccc3c(c2)OCCO3)s1` as the molecule, how does the EC50 [1] read?
Answer: 14.5 µM (active)

Question: What about the EC50 [3] of the same molecule?
Answer: 14.6 µM (active)

Question: With `CC1CCN(S(=O)(=O)c2ccc3c(c2)oc(=O)n3CC(=O)N2c3ccccc3CC2C)CC1` (centres undefined) as the molecule, how does the EC50 [1] read?
Answer: 30.9 µM (active)

Question: What about the EC50 [3] of the same molecule?
Answer: 39.5 µM (active)

Question: Which results are given for `C=CCNC(=O)c1c(Cl)nc(C)c([N+](=O)[O-])c1C`?
Answer: AC50 [11]: 55.3 µM (active); AC50 [12]: 42.7 µM (active)

Question: Which results are given for `C/C(=N\OCc1ccc(C#N)cc1)c1cc2ccccc2o1`?
Answer: EC50 [13]: > 38 µM (not active); IC50 (Protein skinhead-1): 64 µM (inactive); EC50 [14]: > 160 µM (inconclusive)

Question: For `Cc1ccccc1OCc1nc2ccccc2c(=O)n1/N=C/c1c[nH]nc1-c1ccc(Br)cc1`, which EC50 [1] is on record?
Answer: 7.51 µM (active)

Question: And the EC50 [3]?
Answer: 7.05 µM (active)
